Experiments:
4T1 breast cancer cells [1] = assay: Cytokine secretion assay, combination with cGAMP, 4T1 cells; type: cell-based, mouse; conditions: 24 hours, 5 μM Compound 1 or 10 μM Compound 2, 10 mg/ml cGAMP
Procedure: (§1) 4T1 cells were treated for 24 hours with DMSO or VPS34 inhibitors (5 μM Compound 1 or 10 μM Compound 2) in combination with 10 mg/ml STING agonist cGAMP (green bars). Cells were washed with PBS and RNA was isolated using the PureLink RNA kit (#12183018A, Thermo Fisher Scientific) according to the manufacturer's protocol. Genomic DNA was removed using DNA-binding columns (RNeasy plus kit, #74134, Qiagen) and/or DNase treatment (#12185010, Thermo Fisher Scientific). RNA was quantified using NanoDrop (Thermo Fisher Scientific) and 50 ng/μL RNA was used for cDNA synthesis with SuperScript IV VILO Master Mix (#11756050, Thermo Fisher Scientific). Quantitative RT-PCR (qRT-PCR) was run with diluted cDNA (1:25 or 1:12.5), PowerUp SYBR Green Master Mix (#A25741, Thermo Fisher Scientific), and 200 nM primers (see below) on a CFX Connect RT-PCR system (BioRad). Data was analyzed using the ΔΔCT method. Results are mean±SEM of three independent experiments.
(§2) Cell culture medium was centrifuged at 1600 rpm for 10 min at 4° C. and obtained supernatant stored at −80° C. Cytokine levels were quantified using following Meso Scale Discovery (MSD) assays: mouse U-PLEX RANTES/CCL5 (#K152A2K) and U-PLEX IP-10/CXCL10 (#K152UFK). Assays were run on the SECTOR Quickplex Imager and analyzed using Discovery Workbench version 4.0 (MSD).

[2] = test system: CT26 colorectal cancer cells; assay: Cytokine secretion assay, combination with cGAMP, CT26 cells; type: cell-based, mouse; conditions: 24 hours, 5 μM Compound 1 or 10 μM Compound 2, 10 mg/mL cGAMP
Procedure: as §1, with “CT26” for “4T1”, “mg/mL” for “mg/ml”
as §2

4T1 breast cancer cells [3] = assay: qRT-PCR, combination with cGAMP, 4T1 cells; type: cell-based, Mouse; conditions: 24 hours, 5 μM Compound 1 or 10 μM Compound 2, 10 mg/ml cGAMP
Procedure: as §1

[4] = test system: CT26 colorectal cancer cells; assay: qRT-PCR, combination with cGAMP, CT26 cells; type: cell-based, Mouse; conditions: 24 hours, 5 μM Compound 1 or 10 μM Compound 2, 10 mg/mL cGAMP
Procedure: as §1, with “CT26” for “4T1”, “mg/mL” for “mg/ml”

YUMM 1.7 melanoma cells [5] = assay: qRT-PCR, combination with cGAMP, YUMM1.7 cells; type: cell-based, Mouse; conditions: 24 hours, 5 μM Compound 1 or 10 μM Compound 2, 10 mg/ml cGAMP
Procedure: as §1, with “YUMM1.7” for “4T1”

YUMM 1.7 melanoma cells [6] = assay: Cytokine secretion assay, combination with cGAMP, YUMM1.7 cells; type: cell-based, mouse; conditions: 24 hours, 5 μM Compound 1 or 10 μM Compound 2, 10 mg/ml cGAMP
Procedure: as §1, with “YUMM1.7” for “4T1”
as §2

Nc1nc2c(ncn2[C@@H]2O[C@@H]3COP(=O)(O)O[C@H]4[C@@H](O)[C@H](n5cnc6c(N)ncnc65)O[C@@H]4COP(=O)(O)O[C@@H]2[C@@H]3O)c(=O)[nH]1 [cGAMP, reference compound]
increased: CCL5 protein secretion (4T1 breast cancer cells [1]) | CXCL10 protein secretion (4T1 breast cancer cells [1]) | CCL5 protein secretion [2] | CXCL10 protein secretion [2] | CCL5 mRNA expression (4T1 breast cancer cells [3]) | CXCL10 mRNA expression (4T1 breast cancer cells [3]) | CCL5 mRNA expression [4] | CXCL10 mRNA expression [4] | CCL5 mRNA expression (YUMM 1.7 melanoma cells [5]) | CXCL10 mRNA expression (YUMM 1.7 melanoma cells [5]) | CCL5 protein secretion (YUMM 1.7 melanoma cells [6]) | CXCL10 protein secretion (YUMM 1.7 melanoma cells [6])

From patent US20250127790A1, “COMBINATION THERAPY USING VPS34 INHIBITORS” (Deciphera Pharmaceuticals, LLC, priority 2021, published 2025)
